Laboratory results from PubChem BioAssay (NCI).
Several values for one entry are separate records, joined by “and”; a condition that tells them apart may be missing. Identical values can stand only once.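 Briefly, cells in 96-well plates were exposed to five compound concentrations for 48 h, and endpoints were estimated by linear interpolation. Abbreviation: GI50, concentration required for 50% inhibition of growth. TGI marks complete inhibition of growth.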

Legend:
Experiment in all cases: NCI anticancer screen, dose series, 48 h
NCI-H23 lung = tested on: NCI-H23 lung
786-0 renal = tested on: 786-0 renal
OVCAR-3 ovarian = tested on: OVCAR-3 ovarian
HCT-15 colon = tested on: HCT-15 colon
HL-60(TB) leukemia = tested on: HL-60(TB) leukemia
TK-10 renal = tested on: TK-10 renal
SW-620 colon = tested on: SW-620 colon
DU-145 prostate = tested on: DU-145 prostate
OVCAR-5 ovarian = tested on: OVCAR-5 ovarian
T-47D breast = tested on: T-47D breast

| SMILES | GI50 (NCI-H23 lung) | TGI (NCI-H23 lung) | GI50 (786-0 renal) | TGI (786-0 renal) | GI50 (OVCAR-3 ovarian) | TGI (OVCAR-3 ovarian) | GI50 (HCT-15 colon) | TGI (HCT-15 colon) | GI50 (HL-60(TB) leukemia) | TGI (HL-60(TB) leukemia) | GI50 (TK-10 renal) | TGI (TK-10 renal) | GI50 (SW-620 colon) | TGI (SW-620 colon) | GI50 (DU-145 prostate) | TGI (DU-145 prostate) | GI50 (OVCAR-5 ovarian) | TGI (OVCAR-5 ovarian) | GI50 (T-47D breast) | TGI (T-47D breast) |
| --- | --- | --- | --- | --- | --- | --- | --- | --- | --- | --- | --- | --- | --- | --- | --- | --- | --- | --- | --- | --- |
| O=C(COc1cccc(/C=C2\Oc3ccc4ccccc4c3C2=O)c1)c1ccc(Cl)cc1 | 30.5 µM | > 100 µM | 4.54 µM | 19 µM | 19.8 µM | 48.6 µM | 33 µM | > 100 µM | 16.1 µM | 90.9 µM | > 100000 nM | > 100 µM | 11.7 µM | 88.3 µM | 39.6 µM | > 100 µM | > 100 µM | > 100 µM | 15.3 µM | 52.4 µM |
| COC(=O)[C@H](C)NC(=O)[C@@H](OC)[C@@H]1Cc2cc3cc(OC4CC(OC5CC(O)C(O)C(C)O5)C(O)C(C)O4)c(C)c(O)c3c(O)c2C(=O)[C@H]1OC1CC(OC2CC(OC3CC(C)(O)C(O)C(C)O3)C(O)C(C)O2)C(O)C(C)O1 (stereo partly specified) | 0.0939 µM | > 50 µM | 0.148 µM | 9.16 µM | 0.118 µM | 7.41 µM | 0.41 µM | > 50 µM | 0.894 µM | 10.6 µM | 336 nM | > 50 µM | 0.116 µM | > 50 µM | 0.146 µM | > 50 µM | 0.158 µM | > 50 µM | 0.143 µM | > 50 µM |
| CCCCCCCCCCCCCCCCCCOc1ccccc1CC(=O)NCC[N+](C)(C)C | 5.07 µM | 35.4 µM | 3.57 µM | 78.7 µM | 3.55 µM | 50.5 µM | 17 µM | 57.4 µM | – | – | 2270 nM | 6.48 µM | 5.8 µM | 40.8 µM | 4.97 µM | 39.2 µM | 2.68 µM | 12.8 µM | 7.6 µM | 58.9 µM |
| Cc1nc2c(N3CCCC3)nc(N3CCNCC3)nc2nc1NCc1ccccc1 | 6.77 µM | 12.7 µM and 23.7 µM | 1.62 µM | 10.5 µM and 3.18 µM | 3.28 µM | 9.27 µM and 10.7 µM | 4.17 µM | 8.9 µM and 4.53 µM | 4.71 µM | 13.2 µM and 11.8 µM | – | 11.8 µM and 17.6 µM | 5.9 µM | 12.5 µM and 7.27 µM | 5.35 µM | 19.4 µM and 21.3 µM | 6.11 µM | 11.6 µM and 26.1 µM | 3.23 µM | 13.8 µM and 4.96 µM |
| CC1(C)CC([P+](c2ccccc2)(c2ccccc2)c2ccccc2)=NN1 | 4.28 µM | > 100 µM | 26.6 µM | > 100 µM | 2.18 µM | 73.7 µM | > 100 µM | > 100 µM | 1.91 µM | 9.19 µM | 1470 nM | 16.6 µM | 4.57 µM | > 100 µM | 4.34 µM | > 100 µM | 18.7 µM | > 100 µM | 0.91 µM | 8.44 µM |
| NC(=O)c1ccccc1NC(=O)c1ccccc1Cl | > 100 µM | > 100 µM | > 100 µM | > 100 µM | > 100 µM | > 100 µM | > 100 µM | > 100 µM | > 100 µM | > 100 µM | > 100000 nM | > 100 µM | > 100 µM | > 100 µM | > 100 µM | > 100 µM | > 100 µM | > 100 µM | > 100 µM | > 100 µM |
| Fc1ccc2c(c1)C1=C(CO2)C(c2ccc(Cl)cc2)NC(=S)N1 (stereo unspecified) | 26 µM | 58.5 µM | 21.3 µM | 46 µM | 14.7 µM | 49.5 µM | 92.6 µM | > 100 µM | 31.6 µM | > 100 µM | 59100 nM | > 100 µM | 27.3 µM | 93.8 µM | 28 µM | > 100 µM | 28.2 µM | 84.3 µM | 63.2 µM | > 100 µM |
| Cc1ncc(C(=O)Nc2ccc(CN3CCN(C)CC3)c(C(F)(F)F)c2)cc1C#Cc1c(N)ncc2ccccc12 | 0.439 µM | 1.02 µM | 0.568 µM | 1.05 µM | 0.484 µM | 1.04 µM | 0.382 µM | 0.873 µM | 0.247 µM | 0.817 µM | 623 nM | 1.12 µM | 0.227 µM | 0.754 µM | 0.502 µM | 0.997 µM | 0.415 µM | 0.985 µM | 1.96 µM | 7.7 µM |
| CNC1=C(C(=O)OC)SC(c2ccccc2)(c2ccccc2)SC1 | 17.5 µM | > 100 µM | 31.9 µM | > 100 µM | > 100 µM | > 100 µM | 9.36 µM | > 100 µM | 12 µM | 58.2 µM | 25300 nM | > 100 µM | 15 µM | > 100 µM | 20.4 µM | > 100 µM | > 100 µM | > 100 µM | 34.6 µM | > 100 µM |
| CN(C)CCCCn1ccc2c1C(=O)c1c(c(O)c3ccccc3c1O)C2=O | 11.2 µM | 23.3 µM | 12.2 µM | 25.3 µM | 2.98 µM | 15.9 µM | 16 µM | 29.4 µM | 10.4 µM | 23.4 µM | 501 nM | 7.73 µM | – | – | 20.1 µM | 41.9 µM | 12.9 µM | 25.6 µM | 3.77 µM | 22.8 µM |
| C=C(CNC(=O)c1ccccc1)c1ccc(C(=O)Nc2ccccc2N)cc1 | 18.7 µM | > 100 µM | 7.55 µM | > 100 µM | 11.2 µM | > 100 µM | 8.14 µM | > 100 µM | – | – | 2120 nM | 13.6 µM | 3.62 µM | > 100 µM | 4.08 µM | > 100 µM | 2.22 µM | > 100 µM | 4.99 µM | > 100 µM |
| N#C/C(=C\c1c(-c2ccccc2)[nH]c2ccccc12)C(=O)c1ccccc1 | 16 µM | > 100 µM | 16.5 µM | > 100 µM | 2.43 µM | 5.75 µM | 3.53 µM | > 100 µM | – | – | 11100 nM | 86.9 µM | 2.97 µM | > 100 µM | 5.22 µM | > 100 µM | > 100 µM | > 100 µM | 5.27 µM | > 100 µM |
